This is an account of results in US20220170052A1, “USE OF BACTERIOCIN-PRODUCING ETHANOLOGENS IN BIOFUEL PRODUCTION” (Wisconsin Alumni Research Foundation, priority 2016, published 2022).

Where no end group is shown, it is not given here.

For assay [1], the system named is wild lactic acid bacteria isolated from ethanol plants. The assay is described as follows: Sensitivity of 15 wild lactic acid bacteria isolated from ethanol plants to inhibitors in corn steep liquor broth (CSL). The conditions noted are these: share of 15 wild LAB isolates, 33° C. In kind it is cell-based. An excerpt:
Pediocin and brochocin are known to inhibit a particular range of LAB, and serve as exemplary model bacteriocins. Other bacteriocins with equal or even broader inhibition ranges may be, based on the present disclosure, synthesized and secreted in a similar manner. Table 8 compares the effectiveness of three different LAB bacteriocins against the three antibiotics most commonly utilized in the ethanol industry as well as another industry antimicrobial ingredient, hop acids. […] Fifteen strains representative of the organisms isolated from corn ethanol plants were utilized. […] The bacteriocins were utilized at either levels currently being produced (pediocin), at levels reported by others in the research literature (nisin) using commercially available preparations, or in an assay system that allows for analyzing relatively broad range of concentrations (brochocin inhibition assay by agar diffusion).

In assay [2] the test system is ethanol plant isolates (LAB). The assay is described as follows: Growth (O.D.600) of ethanol plant isolates in corn mash extract with added pediocin. In kind it is cell-based, lactic acid bacteria. The conditions noted are these: Pediocin (Sigma) 500 ng/ml in corn mash extract, 37° C. From the text:
Screening LAB isolated from ethanol plants for susceptibility to pediocin or brochocin. A variety of microorganisms are known to contaminate bioethanol fermentations, however LAB, particularly lactobacilli, are of primary concern (Beckner et al., 2011). The inventors' laboratory has isolated sixty-two LAB from four ethanol plants in the Midwest region of the United States. This ethanol plant culture collection contains isolates of Lb. fermentum, Lb. plantarum, Lb. brevis, Lb. mucosae, Lb. helveticus, Lb. heilongjiangensis, Lb. amylovorous, Lb. casei, Enterococcus sp. and Pediococcus pentosaceus strains that were gathered from all stages of the ethanol fermentation process. Thirty of these cultures were propagated from frozen by sequential transfers through MRS broth and corn mash extract, a filtrate obtained from corn mash from a bioethanol plant. Pediocin (Sigma) was added at 500 ng/ml to corn mash extract, inoculated with one of the ethanol plant isolates, incubated at 37° C. and growth was monitored by following O.D.600.

For the compound `CC[C@H]1OC(=O)[C@H](C)[C@@H](O[C@H]2C[C@@](C)(OC)[C@@H](O)[C@H](C)O2)[C@H](C)[C@@H](O[C@@H]2O[C@H](C)C[C@H](N(C)C)[C@H]2O)[C@](C)(O)C[C@@H](C)C(=O)[C@H](C)[C@@H](O)[C@]1(C)O` [Erythromycin], in assay [1] (Erythromycin 1 μg/mL), the Resistant came to 7% and the Sensitive is listed as 93%.
As to Penicillin, in assay [1] (Penicillin 6 μg/mL), the Resistant amounted to 33% and the Sensitive is on record as 77%.
In assay [1] (Virginiamycin 3 μg/mL), Virginiamycin registered a Resistant of 13% and a Sensitive of 87%.
In assay [1] (Nisin 500 ng/mL), nisin came in with a Resistant of 13% and a Sensitive of 87%.
For “pediocin (KYYGNGVTCGKHSCSVDWGKATTCIINNGAMAWATGGHQGNHKC; ends and bridges not checked; cysteine pairing not given here; UniProt P29430 19-62, looked up) [Class IIa bacteriocin; commercial preparation (Sigma), used at the concentration produced by Lb. casei E3 (pNZPed+)]”, in assay [2], the “ethanol plant isolates whose growth was inhibited” value was “five of the thirty”. For the same compound, in assay [1] (Pediocin 500 IU/mL), the Resistant is reported as 67% and the Sensitive was 33%.
